According to publication PMC10265666, “Lung SPLUNC1 Peptide Derivatives in the Lipid Membrane Headgroup Kill Gram-Negative Planktonic and Biofilm Bacteria” (Biomacromolecules, 2023):
Several values for one entry are separate records, joined by “and”; a condition that tells them apart may be missing. Identical values can stand only once. Positions of bridges follow the written chain, without caps; N, C: chain ends. Non-standard residues stand in square brackets, D forms with d. Residues, ends and D or L forms follow the SMILES beside them. *: point of attachment. X1 = CC[C@H](C)CCCCC(=O)*; Dab = NCC[C@H](N)C(=O)O

Tests used:
[1] = Circular dichroism secondary structure in G(−)IM ULVs; type: physicochemical; conditions: 10 μM peptide, 15 mM PBS pH 7, 37 °C
Method: Unilamellar vesicles (ULVs) of ∼600 Å diameter were prepared using an Avanti extruder: 200 μL of 20 mg/ml G(−)IM lipid in 15 mM PBS was extruded 21 times through Nucleopore filters of size 500 Å using 0.2 mL Hamilton syringes in the Avanti extruder. The final concentration of G(−)IM lipid in the ULVs was determined gravimetrically to be 15 mg/ml. Concentrated ULVs were added to 3 mL of 10 μM peptide in 15 mM PBS at pH 7 to create lipid/peptide molar ratios between 0:1 and 70:1. The samples remained at room temperature for ∼16 h before the CD measurement. Data were collected in 3 mL quartz cuvettes using a Jasco 1500 CD spectrophotometer at 37 °C in the Center for Nucleic Acids Science and Technology at Carnegie Mellon University. The samples were scanned from 200 to 240 nm 20 times, and the ellipticity (ϵ) results were averaged. Temperature was controlled at 37 °C via a Peltier element and water circulation through the sample compartment. Nitrogen gas was used at a flow rate between 20 and 25 ft^3/h (CFH). The parameters for scanning were: speed 100 nm/min, step size 1.0 nm, response time 1 second, bandwidth 1 nm, and sensitivity of 20 mdeg. OriginPro 2019 (OriginLab, Northampton, MA) was used to carry out a linear least-squares fit of the smoothed ellipticity traces to four secondary structural motifs representing α-helix, β-sheet, β-turn, and random coil.[20] This analysis gives a percentage match of each of the secondary structural motifs to the total sample ellipticity. Data were finally converted to mean residue ellipticity, taking into account the peptide concentration (10 μMolar) and number of amino acids (N), using the equation: MRE = (10^4/N)ϵ deg cm^2/dmol.

[2] = Circular dichroism secondary structure in Euk33 ULVs; type: physicochemical; conditions: 10 μM peptide, 15 mM PBS pH 7, 37 °C
[3] = system: eukaryotic cells vs bacteria; test: Therapeutic index (eukaryotic cell kill concentration / bacterial kill concentration); type: cell-based
Method: But more important than cytotoxicity is the therapeutic index (TI), which is the concentration at which ≥90% of eukaryotic cells are killed divided by the concentration at which ≥90% of bacteria are killed. For A4-153, this TI value is an estimated ≈ 128 μM/16 μM ≈ 8. TI for A4-157 is an estimated 128 μM/24 μM ≈ 5, and the TI for A4-183 is an estimated 64 μM/20 μM ≈ 3.

[4] = system: Klebsiella pneumoniae, 24 clinical isolates and 1 lab strain; type: cell-based; conditions: for antibacterial efficacy: tested G(−) bacteria (K. pneumoniae)
Method: Minimum inhibitory concentration (MIC, defined as the minimum AMP concentration to prevent bacterial growth) and biofilm data were obtained by UV–vis spectroscopy using a BioTek Epoch 2 microplate reader.
K. pneumoniae substrains were grown overnight using 50 mL plastic conical tubes on a shaker platform at 37 °C. The following day, serial dilutions of the four SPLUNC1 peptides and LL-37 were tested against these 25 substrains of K. pneumoniae using a 96-well plate. […] Following the addition of the peptides at the tested concentrations from serial dilutions to the K. pneumoniae substrains, the plates were incubated at 37 °C for 16 h. Then, visible spectroscopy at λ = 570 nm was performed to determine the bacterial absorption in each well. Those wells with an optical density reading above a threshold value were deemed resistant to the peptide, while those that were below the threshold value were deemed sensitive to the peptide. The threshold value was determined using Gen5 software with the Di lab Growth Inhibition Assay protocol.
Average MICs and standard deviations were calculated by first averaging the absorbances as a function of AMP concentration in all of the bacterial strains from four total data sets. Then, the average MICs were determined from the averaged absorbances. The standard deviations of the MICs were calculated from each of the absorbances that were used to calculate the average. Then, the standard deviations were averaged across substrains for the graph. These procedures were used to obtain an average MIC with standard deviation across all 25 substrains for one peptide, in order to compare peptide efficacy. Typically, many more substrains are used to obtain an average MIC, so this average MIC may change if thousands of substrains are compared.

[5] = G(−)IM/peptide molar ratio 10:1
[6] = G(−)IM/peptide molar ratio 15:1
[7] = G(−)IM/peptide molar ratio 20:1
[8] = G(−)IM/peptide molar ratio 25:1
[9] = G(−)IM/peptide molar ratio 30:1
[10] = G(−)IM/peptide molar ratio 40:1
[11] = G(−)IM/peptide molar ratio 50:1
[12] = G(−)IM/peptide molar ratio 70:1

Compound: CC(C)[C@H](NC(=O)CNC(=O)CNC(=O)[C@@H](NC(=O)[C@H](Cc1c[nH]c2ccccc12)NC(=O)CNC(=O)[C@H](CCCCN)NC(=O)[C@@H](NC(=O)[C@H](CCCCN)NC(=O)[C@H](CCCCN)NC(=O)[C@H](Cc1ccccc1)NC(=O)[C@H](Cc1ccccc1)NC(=O)[C@H](CCCCN)NC(=O)[C@H](CCCCN)NC(=O)[C@@H](N)Cc1ccccc1)C(C)C)C(C)C)C(=O)N[C@@H](Cc1c[nH]c2ccccc12)C(=O)NCC(=O)N[C@@H](CCCCN)C(=O)N[C@H](C(=O)N[C@@H](CCCCN)C(=O)N[C@@H](CO)C(=O)N[C@H](C(=O)N[C@H](C(=O)N[C@@H](CCCCN)C(=O)O)C(C)C)C(C)C)C(C)C (stereo in doubt) [A4-157]
- Random ([1]; G(−)IM/peptide molar ratio 0:1): 61.7%
- α-helix ([1]; G(−)IM/peptide molar ratio 0:1): 4.57%
- β-sheet ([1]; G(−)IM/peptide molar ratio 0:1): 33.6%
- β-turn ([1]; G(−)IM/peptide molar ratio 0:1): 0%
- Random ([1]; G(−)IM/peptide molar ratio 1:1): 61.7%
- α-helix ([1]; G(−)IM/peptide molar ratio 1:1): 6.9%
- β-sheet ([1]; G(−)IM/peptide molar ratio 1:1): 31.4%
- β-turn ([1]; G(−)IM/peptide molar ratio 1:1): 0%
- Random ([1]; G(−)IM/peptide molar ratio 5:1): 59.5%
- α-helix ([1]; G(−)IM/peptide molar ratio 5:1): 15.1%
- β-sheet ([1]; G(−)IM/peptide molar ratio 5:1): 25.4%
- β-turn ([1]; G(−)IM/peptide molar ratio 5:1): 0%
- Random [1, 5]: 52.6%
- α-helix [1, 5]: 19.0%
- β-sheet [1, 5]: 28.3%
- β-turn [1, 5]: 0.1%
- Random [1, 6]: 20.1%
- α-helix [1, 6]: 46.0%
- β-sheet [1, 6]: 33.9%
- β-turn [1, 6]: 0%
- Random [1, 7]: 26.5%
- α-helix [1, 7]: 49.3%
- β-sheet [1, 7]: 24.2%
- β-turn [1, 7]: 0%
- Random [1, 8]: 8.3%
- α-helix [1, 8]: 61.0%
- β-sheet [1, 8]: 28.5%
- β-turn [1, 8]: 2.2%
- Random [1, 9]: 8.1%
- α-helix [1, 9]: 62.1% and 62%
- β-sheet [1, 9]: 28.7%
- β-turn [1, 9]: 1.1%
- Random [1, 10]: 0%
- α-helix [1, 10]: 59.5%
- β-sheet [1, 10]: 40.5%
- β-turn [1, 10]: 0%
- Random [1, 11]: 1.0%
- α-helix [1, 11]: 56.4%
- β-sheet [1, 11]: 33.6%
- β-turn [1, 11]: 0%
- Random [1, 12]: 13.2%
- α-helix [1, 12]: 51.2%
- β-sheet [1, 12]: 35.6%
- β-turn [1, 12]: 0%
- Random ([2]; Euk33/peptide molar ratio 0:1): 61.7%
- α-helix ([2]; Euk33/peptide molar ratio 0:1): 4.57%
- β-sheet ([2]; Euk33/peptide molar ratio 0:1): 33.6%
- β-turn ([2]; Euk33/peptide molar ratio 0:1): 0%
- Random ([2]; Euk33/peptide molar ratio 5:1): 64.2%
- α-helix ([2]; Euk33/peptide molar ratio 5:1): 3.3%
- β-sheet ([2]; Euk33/peptide molar ratio 5:1): 32.5%
- β-turn ([2]; Euk33/peptide molar ratio 5:1): 0%
- Random ([2]; Euk33/peptide molar ratio 10:1): 64.4%
- α-helix ([2]; Euk33/peptide molar ratio 10:1): 7.3%
- β-sheet ([2]; Euk33/peptide molar ratio 10:1): 28.3%
- β-turn ([2]; Euk33/peptide molar ratio 10:1): 0%
- Random ([2]; Euk33/peptide molar ratio 30:1): 59.1%
- α-helix ([2]; Euk33/peptide molar ratio 30:1): 10%
- β-sheet ([2]; Euk33/peptide molar ratio 30:1): 30.9%
- β-turn ([2]; Euk33/peptide molar ratio 30:1): 0%
- Random ([2]; Euk33/peptide molar ratio 70:1): 42.5%
- α-helix ([2]; Euk33/peptide molar ratio 70:1): 7.4%
- β-sheet ([2]; Euk33/peptide molar ratio 70:1): 50.1%
- β-turn ([2]; Euk33/peptide molar ratio 70:1): 0%
- concentration at which ≥90% of bacteria are killed ([3]; denominator of TI): 24 µM
- concentration at which ≥90% of eukaryotic cells are killed (estimated) ([3]; numerator of TI): ≈ 128 μM

Compound: CC[C@H](C)CCCCC(=O)N[C@@H](CCN)C(=O)N[C@H](C(=O)N[C@@H](CCN)C(=O)N[C@H]1CCNC(=O)[C@H]([C@@H](C)O)NC(=O)[C@H](CCN)NC(=O)[C@H](CCN)NC(=O)[C@H](CC(C)C)NC(=O)[C@@H](CC(C)C)NC(=O)[C@H](CCN)NC1=O)[C@@H](C)O [colistin, reference compound] (X1-[Dab]T[Dab][Dab][Dab][dL]L[Dab][Dab]T; lactam 4-C (inferred); N-terminus assumed)
- average MIC, colistin-susceptible substrains only ([4]; 13 colistin-susceptible K. pneumoniae substrains): 0.88 µM
- MIC in the colistin-sensitive substrains ([4]; colistin-sensitive K. pneumoniae substrains): < 2 µM

Compound: GVKKKWKKKLGLTLWLKISGVV [A4-198, version scrambled to α-helical content, with a similar hydrophobicity as A4-153]
- average MIC value ([4]; average over 25 K. pneumoniae substrains, 37 °C, 16 h, OD 570 nm, growth at 32 μM counted as 64 μM): highest MIC value
- antibacterial efficacy [4]: ineffective
- Random ([1]; G(−)IM/peptide molar ratio 0:1): 35.9%
- α-helix ([1]; G(−)IM/peptide molar ratio 0:1): 2.9%
- β-sheet ([1]; G(−)IM/peptide molar ratio 0:1): 56.7%
- β-turn ([1]; G(−)IM/peptide molar ratio 0:1): 4.5%
- Random ([1]; G(−)IM/peptide molar ratio 1:1): 32.7%
- α-helix ([1]; G(−)IM/peptide molar ratio 1:1): 2.6%
- β-sheet ([1]; G(−)IM/peptide molar ratio 1:1): 55.9%
- β-turn ([1]; G(−)IM/peptide molar ratio 1:1): 8.8%
- Random ([1]; G(−)IM/peptide molar ratio 5:1): 41.0%
- α-helix ([1]; G(−)IM/peptide molar ratio 5:1): 22.0%
- β-sheet ([1]; G(−)IM/peptide molar ratio 5:1): 24.4%
- β-turn ([1]; G(−)IM/peptide molar ratio 5:1): 12.6%
- Random [1, 5]: 42.11%
- α-helix [1, 5]: 15.5%
- β-sheet [1, 5]: 32.0%
- β-turn [1, 5]: 10.4%
- Random [1, 6]: 12.1%
- α-helix [1, 6]: 9.1%
- β-sheet [1, 6]: 48.1%
- β-turn [1, 6]: 30.7%
- Random [1, 7]: 30.7%
- α-helix [1, 7]: 4.6%
- β-sheet [1, 7]: 44.5%
- β-turn [1, 7]: 20.2%
- Random [1, 9]: 34.9%
- α-helix [1, 9]: 0.2%
- β-sheet [1, 9]: 44.5%
- β-turn [1, 9]: 20.4%
- Random [1, 11]: 37.6%
- α-helix [1, 11]: 0.2%
- β-sheet [1, 11]: 46.4%
- β-turn [1, 11]: 15.8%
- Random [1, 12]: 37.1%
- α-helix [1, 12]: 2.0%
- β-sheet [1, 12]: 46.2%
- β-turn [1, 12]: 14.7%
- Random ([2]; Euk33/peptide molar ratio 0:1): 35.9%
- α-helix ([2]; Euk33/peptide molar ratio 0:1): 2.9%
- β-sheet ([2]; Euk33/peptide molar ratio 0:1): 56.7%
- β-turn ([2]; Euk33/peptide molar ratio 0:1): 4.5%
- Random ([2]; Euk33/peptide molar ratio 5:1): 34.7%
- α-helix ([2]; Euk33/peptide molar ratio 5:1): 5.7%
- β-sheet ([2]; Euk33/peptide molar ratio 5:1): 53.6%
- β-turn ([2]; Euk33/peptide molar ratio 5:1): 6.0%
- Random ([2]; Euk33/peptide molar ratio 10:1): 37.0%
- α-helix ([2]; Euk33/peptide molar ratio 10:1): 5.9%
- β-sheet ([2]; Euk33/peptide molar ratio 10:1): 51.9%
- β-turn ([2]; Euk33/peptide molar ratio 10:1): 5.2%
- Random ([2]; Euk33/peptide molar ratio 30:1): 38.7%
- α-helix ([2]; Euk33/peptide molar ratio 30:1): 6.2% and 6%
- β-sheet ([2]; Euk33/peptide molar ratio 30:1): 49.4%
- β-turn ([2]; Euk33/peptide molar ratio 30:1): 5.7%
- Random ([2]; Euk33/peptide molar ratio 70:1): 41.8%
- α-helix ([2]; Euk33/peptide molar ratio 70:1): 10.3%
- β-sheet ([2]; Euk33/peptide molar ratio 70:1): 47.9%
- β-turn ([2]; Euk33/peptide molar ratio 70:1): 0%

Compound: LL-37: the human cathelicidin, natural AMP control [reference compound]
- antibacterial efficacy [4]: ineffective
